# Measured values taken from publication PMC5216056 (Nature Communications, 2017).
# Assays:
# hCB2R [1] = target: T1, hCB2R (Homo sapiens, UniProt P34972); set-up: expressed in transfected cells; host or cells: Flp-In-293 (Invitrogen #R750-07), pcDNA5/FRT; settings: hCB2R
# mCB1R = target: T2, mCB1R (Mus musculus, UniProt P47746); assay: biochemical; type: binding; settings: mouse brain membranes
# T2 construct: from tissue; host or cells: brain of male C57BL/6J mice
# alpha 1A (h) = target: T3, alpha 1A (h) (Homo sapiens, UniProt P35348); assay: CEREP panel; type: binding; settings: 10 µM
# T3 construct: CEREP
# T3 sequence (P35348 1-466): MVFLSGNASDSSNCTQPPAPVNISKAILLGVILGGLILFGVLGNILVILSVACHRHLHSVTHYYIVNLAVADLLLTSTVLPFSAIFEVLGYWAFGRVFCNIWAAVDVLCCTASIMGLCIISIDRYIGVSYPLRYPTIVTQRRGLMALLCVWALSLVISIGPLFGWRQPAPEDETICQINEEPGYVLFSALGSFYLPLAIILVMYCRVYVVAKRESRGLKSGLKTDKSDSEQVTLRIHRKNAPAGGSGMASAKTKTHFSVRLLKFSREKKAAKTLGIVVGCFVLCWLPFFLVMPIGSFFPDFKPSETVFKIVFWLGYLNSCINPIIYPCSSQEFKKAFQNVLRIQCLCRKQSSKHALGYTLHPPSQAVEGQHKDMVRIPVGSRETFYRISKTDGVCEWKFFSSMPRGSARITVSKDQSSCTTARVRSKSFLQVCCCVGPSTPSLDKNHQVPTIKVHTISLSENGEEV
# hCB1R = target: T4, hCB1R (Homo sapiens, UniProt P21554); assay: biochemical; type: binding; settings: CHO membranes; Leiden, HU210 and SR144528 from Roche
# T4 construct: host or cells: CHO
# hABHD12 = target: T5, hABHD12 (Homo sapiens, UniProt Q8N2K0); assay: ABHD12 activity; type: biochemical; settings: single point, 10 5 µM [sic]
# T5 construct: expressed in transfected cells
# T5 sequence (Q8N2K0 1-398): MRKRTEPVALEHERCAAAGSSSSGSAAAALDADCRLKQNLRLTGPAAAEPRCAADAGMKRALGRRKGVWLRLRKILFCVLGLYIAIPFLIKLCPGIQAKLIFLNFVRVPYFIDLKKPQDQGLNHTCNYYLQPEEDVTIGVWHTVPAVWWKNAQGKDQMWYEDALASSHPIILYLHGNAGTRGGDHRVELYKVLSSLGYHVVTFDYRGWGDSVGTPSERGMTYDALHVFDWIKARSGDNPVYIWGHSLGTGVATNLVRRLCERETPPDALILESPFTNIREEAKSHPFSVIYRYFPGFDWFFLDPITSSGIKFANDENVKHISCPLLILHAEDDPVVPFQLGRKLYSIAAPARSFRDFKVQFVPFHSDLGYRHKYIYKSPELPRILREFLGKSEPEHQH
# Source text: HEK293T cells were obtained from American Type Culture Collection (ATCC, Manassas, VA, USA). Lipofectamine 2000 was obtained from Life Technologies (Carlsbad, CA, USA) and geneticin from InvivoGen. Cell culture medium, FBS, and cell culture supplements were from Invitrogen (Carlsbad, CA, USA). pCMV6-AC-hABHD6 and pCMV6-XL4-hABHD12 were a kind gift from Prof Jarmo T. Laitinen. hABHD12 sequence was subsequently inserted in a pcDNA3.1 plasmid in order to generate a stable cell line. The effect of CB2R ligands on ABHD6 and ABHD12 hydrolytic activity was determined using cell homogenate from hABHD6 and hABHD12 overexpressing HEK293T cells (40 μg total protein per condition). Samples were pre-incubated with the compounds (10 μM in the screening assay and concentrations in the range 1 nM—50 μM for the dose-response curves) in […] (pH=7.6) buffer containing 0.1%(w/v) BSA. DMSO was used as vehicle control and WWL70 10 μM or THL 20 μM as positive controls. [^3H]-2-OG (10 μM final concentration) was added and after incubation of 5 min at 37 °C, the reaction was stopped by the addition of 400 μl of ice-cold CHCl3:MeOH (1:1). The samples were vortex and centrifuged (16,100g 10 min 4 °C). Aliquots (200 μl) of the aqueous phase were assayed for tritium content by liquid scintillation spectroscopy. The values obtained for each measurement were corrected for non-specific hydrolysis (non-ABHD6 mediated) by subtracting the signal obtained in the hydrolysis of [^3H]- 2-OG by non-transfected HEK293T.
# Rat recombinant TRPM8 = target: T6, Rat recombinant TRPM8 (Rattus norvegicus, UniProt Q8R455); assay: TRP channel [Ca2+]i assay; type: cell-based; settings: vs icilin […]; read-out: TRPM8 IC50 for antagonism of icilin
# T6 construct: expressed in transfected cells; host or cells: HEK293 (TRPM8-HEK-293, gift from Mario van der Stelt)
# hCB2R [2] = target: T1, hCB2R; assay: biochemical; type: binding; settings: CHO membranes; Leiden, HU210 and SR144528 from Roche
# T1 sequence (P34972 whole entry): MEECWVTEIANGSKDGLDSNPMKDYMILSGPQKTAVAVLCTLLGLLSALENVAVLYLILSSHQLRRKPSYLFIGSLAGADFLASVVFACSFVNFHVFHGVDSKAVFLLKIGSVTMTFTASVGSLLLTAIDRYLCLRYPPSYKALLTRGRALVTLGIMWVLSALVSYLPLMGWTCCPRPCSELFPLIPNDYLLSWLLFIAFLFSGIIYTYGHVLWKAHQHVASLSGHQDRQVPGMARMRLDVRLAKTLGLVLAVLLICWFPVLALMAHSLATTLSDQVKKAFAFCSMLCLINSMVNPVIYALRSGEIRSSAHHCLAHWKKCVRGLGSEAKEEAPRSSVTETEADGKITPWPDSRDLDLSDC
# T4 sequence (P21554 whole entry): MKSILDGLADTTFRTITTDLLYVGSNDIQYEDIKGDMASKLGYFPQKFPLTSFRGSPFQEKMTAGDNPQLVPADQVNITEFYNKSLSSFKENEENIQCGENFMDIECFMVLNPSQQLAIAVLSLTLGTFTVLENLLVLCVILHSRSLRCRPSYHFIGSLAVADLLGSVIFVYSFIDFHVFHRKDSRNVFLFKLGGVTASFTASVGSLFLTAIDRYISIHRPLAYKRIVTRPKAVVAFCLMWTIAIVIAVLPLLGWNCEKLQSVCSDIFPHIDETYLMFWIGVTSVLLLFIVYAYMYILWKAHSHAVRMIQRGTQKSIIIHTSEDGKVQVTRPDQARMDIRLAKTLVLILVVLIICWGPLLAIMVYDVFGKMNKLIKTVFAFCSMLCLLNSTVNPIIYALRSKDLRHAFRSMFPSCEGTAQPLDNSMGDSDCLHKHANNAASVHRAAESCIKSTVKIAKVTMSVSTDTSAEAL
# T2 sequence (P47746 whole entry): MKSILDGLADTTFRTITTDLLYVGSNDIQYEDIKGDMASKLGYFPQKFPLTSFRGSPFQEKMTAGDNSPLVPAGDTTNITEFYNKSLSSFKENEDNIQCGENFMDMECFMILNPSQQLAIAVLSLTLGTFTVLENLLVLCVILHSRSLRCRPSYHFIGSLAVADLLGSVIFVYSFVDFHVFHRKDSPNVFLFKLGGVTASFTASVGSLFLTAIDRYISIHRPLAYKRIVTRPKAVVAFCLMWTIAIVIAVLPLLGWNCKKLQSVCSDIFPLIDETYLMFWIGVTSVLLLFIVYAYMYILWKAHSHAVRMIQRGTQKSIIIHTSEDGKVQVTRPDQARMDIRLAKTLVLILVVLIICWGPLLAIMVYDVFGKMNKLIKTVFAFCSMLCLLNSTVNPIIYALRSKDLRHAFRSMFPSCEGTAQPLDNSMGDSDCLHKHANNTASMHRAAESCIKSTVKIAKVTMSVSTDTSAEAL
# T6 sequence (Q8R455 whole entry): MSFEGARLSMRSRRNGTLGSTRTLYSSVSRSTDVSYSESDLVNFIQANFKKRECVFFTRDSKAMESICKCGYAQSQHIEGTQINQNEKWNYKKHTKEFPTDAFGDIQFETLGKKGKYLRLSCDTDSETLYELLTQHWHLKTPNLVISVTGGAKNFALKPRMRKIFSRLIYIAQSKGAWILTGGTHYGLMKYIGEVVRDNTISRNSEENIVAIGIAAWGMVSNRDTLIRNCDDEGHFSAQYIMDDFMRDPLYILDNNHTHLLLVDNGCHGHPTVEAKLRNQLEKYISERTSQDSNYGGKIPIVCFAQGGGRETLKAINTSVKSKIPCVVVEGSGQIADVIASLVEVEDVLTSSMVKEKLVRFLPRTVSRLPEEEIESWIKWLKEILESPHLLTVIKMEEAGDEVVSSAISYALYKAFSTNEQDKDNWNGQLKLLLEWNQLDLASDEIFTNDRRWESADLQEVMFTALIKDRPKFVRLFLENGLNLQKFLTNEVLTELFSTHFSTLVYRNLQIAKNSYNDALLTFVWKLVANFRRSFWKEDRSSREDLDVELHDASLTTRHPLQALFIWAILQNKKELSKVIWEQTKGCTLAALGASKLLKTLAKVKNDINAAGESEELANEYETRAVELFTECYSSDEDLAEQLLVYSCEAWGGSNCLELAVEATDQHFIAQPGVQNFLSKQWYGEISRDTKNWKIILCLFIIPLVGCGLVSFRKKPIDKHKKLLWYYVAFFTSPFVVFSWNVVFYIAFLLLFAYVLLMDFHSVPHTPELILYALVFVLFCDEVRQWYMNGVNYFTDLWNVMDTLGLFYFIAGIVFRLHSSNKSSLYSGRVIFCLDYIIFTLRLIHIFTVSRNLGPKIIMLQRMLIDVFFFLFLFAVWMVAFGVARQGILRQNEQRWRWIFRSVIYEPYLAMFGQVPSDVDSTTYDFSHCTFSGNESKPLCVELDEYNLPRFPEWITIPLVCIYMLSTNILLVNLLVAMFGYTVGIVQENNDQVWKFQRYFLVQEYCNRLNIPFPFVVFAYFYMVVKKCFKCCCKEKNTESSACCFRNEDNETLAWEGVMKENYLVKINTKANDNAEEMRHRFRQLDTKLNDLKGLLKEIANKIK
structure (smiles),measurement,setting,value
CCCCCCC(C)(C)c1cc(OC)c(C2=C[C@H]3CC[C@]2(CO)C3(C)C)c(OC)c1 [HU910],GIRK-GTPγS bias factor (BF),hCB2R [1],0.31
same,GIRK-GTPγS ΔΔlogR,hCB2R [1],-0.51
same,GIRK-cAMP bias factor (BF),hCB2R [1],2.42
same,GIRK-cAMP ΔΔlogR,hCB2R [1],0.38 ± 0.20
same,GTPγS-cAMP bias factor (BF),hCB2R [1],7.73
same,GTPγS-cAMP ΔΔlogR,hCB2R [1],0.89 ± 0.31
same,LogR GIRK,hCB2R [1],5.90
same,LogR GTPγS,hCB2R [1],6.82
same,LogR cAMP,hCB2R [1],8.37
same,LogR pERK,hCB2R [1],6.94
same,LogR β-AR,hCB2R [1],7.72
same,pERK-GIRK bias factor (BF),hCB2R [1],0.73
same,pERK-GIRK ΔΔlogR,hCB2R [1],-0.13
same,pERK-GTPγS bias factor (BF),hCB2R [1],0.23
same,pERK-GTPγS ΔΔlogR,hCB2R [1],-0.64
same,pERK-cAMP bias factor (BF),hCB2R [1],1.77
same,pERK-cAMP ΔΔlogR,hCB2R [1],0.25 ± 0.28
same,β-AR-GIRK bias factor (BF),hCB2R [1],15.07
same,β-AR-GIRK ΔΔlogR,hCB2R [1],1.18 ± 0.22
same,β-AR-GTPγS bias factor (BF),hCB2R [1],4.71
same,β-AR-GTPγS ΔΔlogR,hCB2R [1],0.67 ± 0.32
same,β-AR-cAMP bias factor (BF),hCB2R [1],36.90
same,β-AR-cAMP ΔΔlogR,hCB2R [1],1.57 ± 0.15
same,β-AR-pERK bias factor (BF),hCB2R [1],20.56
same,β-AR-pERK ΔΔlogR,hCB2R [1],1.31 ± 0.29
same,ΔLogR GIRK,hCB2R [1]; reference CP55940,-1.96
same,ΔLogR GTPγS,hCB2R [1]; reference CP55940,-1.46
same,ΔLogR cAMP,hCB2R [1]; reference CP55940,-2.35
same,ΔLogR pERK,hCB2R [1]; reference CP55940,-2.1
same,ΔLogR β-AR,hCB2R [1]; reference CP55940,-0.78
same,RE GIRK,hCB2R [1]; relative effectiveness,0.01
same,RE GTPγS,hCB2R [1]; relative effectiveness,0.03
same,RE cAMP,hCB2R [1]; relative effectiveness,0.005
same,RE pERK,hCB2R [1]; relative effectiveness,0.01
same,RE β-AR,hCB2R [1]; relative effectiveness,0.16
same,pKi ± SEM mCB1R,mCB1R,6.14±0.13
same,% inhibition alpha 1A (h),alpha 1A (h),1%
same,pKi ± SEM hCB1R,hCB1R,< 5
same,ABHD12 % inhibition,hABHD12,< 25%
same,IC50,Rat recombinant TRPM8,> 100 µM
same,pKi ± SEM hCB2R,hCB2R [2],7.22 ± 0.31
